# Results: patent publication US20250099412A1, “METHOD OF INHIBITING DEGRADING PROTEASE ACTIVITY IN AGING” (The Regents of the University of California, priority 2022, published 2025)
# What was measured:
# pancreatic trypsin = assay: Pancreatic trypsin immunohistochemistry on rat tissue sections (young, old, old-treated); format: in vivo; details: old rats (100 weeks), compared with old and young (16 weeks) rats
# Description: (§1) Male Wistar rats (Harlan Sprague Dawley Inc., Indianapolis, IN) at maturity (4 months, 300 to 350 gm) and old age (24 months, 375 to 450 gm) were included in the study. The animals were maintained on standard laboratory chow (8604 Teklad rodent diet; Harlan Laboratories, Indianapolis, IN) without restriction and water ad libitum and maintained in separated room without pathogen-free conditions. […] A subgroup of old animals was given a serine protease inhibitor (tranexamic acid, 14 days) in drinking water (137 mM, exchanged daily) which at a minimum fluid consumption of 40 ml/day amounts to a minimum dose of 0.39 gm/kg/day for 350 gm body weight (BW).
# A femoral venous catheter was placed after general anesthesia (pentobarbital sodium, 50 mg/kg [Abbott Laboratories, North Chicago, IL], intramuscularly after local anesthesia with 2% lidocaine HCl [Hospira, Inc, Lake Forrest, IL]). […]
# To determine on the tissue sections the immunolabel density and distribution of serine proteases, pancreatic trypsin MoAb (D-1): sc-137077 (Santa Cruz) primary antibody was used, followed by secondary antibodies (MP-7601 for anti-rabbit IgG; MP-7602 for anti-mouse IgG; ImmPRESS Excel staining kit peroxidase). […] No counterstain was applied to facilitate quantitative label intensity measurements and since cellular and vascular structures are readily identified. […] All procedures were carried out under standardized conditions to permit quantitative comparison of label densities.
# Small intestine: Full thickness tissue blocks of the wall of proximal jejunum (3 by 5 mm) were fixed from all sides in 10% formaldehyde. Serine proteases were detected with primary and secondary antibodies labeled with DAB (Peroxidase Substrate Kit, ab64238, ABCAM).
# Images of the immunolabel density were recorded at different magnifications, from relatively low power overviews of the tissue (10× objective, numerical aperture 0.25) to higher magnification of single cells (at 60× oil immersion objective, numerical aperture 1.4). […]
# collagen = assay: Collagen fragment labeling with biotin conjugated collagen hybridizing peptides (B-CHP); format: in vivo, rat; details: old rats (100 weeks), two-week oral treatment, compared with old and young (16 weeks) rats
# Description: as §1, with “(BW). […]” for “(BW).”
# Tissue sections were stained with B-CHP (stock solution, 150 mM; final applied solution 7.5. mM). […] The B-CHP label intensity on the sections was recorded by digital microscopy.
# (§2) Images of the immunolabel density were recorded at different magnifications, from relatively low power overviews of the tissue (10× objective, numerical aperture 0.25) to higher magnification of single cells (at 60× oil immersion objective, numerical aperture 1.4). The images were recorded under standard light conditions under fixed settings of the substage condenser with a digital camera (Spot Insight GIGABIT camera, Sterling Height), so that the camera serves as a quantitative light intensity meter. […]
# mucin = assay: Mucin-containing mucus layer of small intestine stained with alcian blue; format: in vivo, rat; details: old rats (100 weeks), two-week oral treatment; compared with old and young rats; FIG. 3B
# Description: as §1, with “(BW). […]” for “(BW).”
# as §2, with “meter. Images were analyzed on a laboratory computer to minimize operator error (NIH Image, 1.61, public domain software, spatial resolution of 640×480 pixel).” for “meter.”
# amylase = assay: Amylase staining of epithelial cells of the small intestine; format: in vivo, rat; details: old rats (100 weeks), oral treatment for two weeks; compared with old and young rats; FIG. 3B
# Description: as §1
compound,measurement,setting,value
NC[C@H]1CC[C@H](C(=O)O)CC1 [tranexamic acid],pancreatic trypsin accumulation in cardiac muscle,"pancreatic trypsin; two-week oral treatment (137 mM in drinking water), FIG. 1A",reduces pancreatic trypsin accumulation
same,pancreatic trypsin accumulation in brain,"pancreatic trypsin; two-week oral treatment, FIG. 2A",reduces pancreatic trypsin accumulation
same,pancreatic trypsin accumulation in intestine,"pancreatic trypsin; two-week oral treatment, FIG. 3A",reduces pancreatic trypsin accumulation in old rats (100 weeks) to similar levels seen in young rats
same,collagen fragmentation in cardiac muscle,collagen; FIG. 1B,reduces collagen fragmentation in cardiac muscle in old-treated rats below levels seen in old rats to levels similar to those seen in young rats
same,collagen fragmentation in brain,collagen; FIG. 2B,reduces collagen fragmentation in rat brain in old-treated rats below levels seen in old rats to levels similar to those seen in young rats
same,mucin label density in villi of small intestine,mucin,partially restored
same,increase in amylase in the small intestine of old rats,amylase,attenuated
